Measurements reported in PubChem BioAssay (NCI).
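The compound was tested at five concentrations on cells cultured in 96-well plates, with a 48-hour exposure period. Abbreviation: GI50, concentration required for 50% inhibition of growth. Definition used: TGI = concentration required for complete inhibition of growth.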

Tests used:
Assay in all cases: growth of human tumour cells (NCI), 48 h
SK-MEL-28 melanoma = test system: SK-MEL-28 melanoma
HL-60(TB) leukemia = test system: HL-60(TB) leukemia
NCI-H522 lung = test system: NCI-H522 lung
IGROV1 ovarian = test system: IGROV1 ovarian
UACC-62 melanoma = test system: UACC-62 melanoma
MALME-3M melanoma = test system: MALME-3M melanoma
KM12 colon = test system: KM12 colon
UO-31 renal = test system: UO-31 renal
UACC-257 melanoma = test system: UACC-257 melanoma
SNB-19 CNS = test system: SNB-19 CNS
SF-268 CNS = test system: SF-268 CNS
OVCAR-8 ovarian = test system: OVCAR-8 ovarian
SF-539 CNS = test system: SF-539 CNS
OVCAR-5 ovarian = test system: OVCAR-5 ovarian
U251 CNS = test system: U251 CNS
CAKI-1 renal = test system: CAKI-1 renal
M19-MEL melanoma = test system: M19-MEL melanoma
MOLT-4 leukemia = test system: MOLT-4 leukemia
RXF 393 renal = test system: RXF 393 renal

With `COc1ccc(/C=C2\CCNC2=O)cc1` the TGI (SK-MEL-28 melanoma) was greater than 100 µM, the TGI (HL-60(TB) leukemia) was greater than 100 µM and the TGI (NCI-H522 lung) was greater than 100 µM. The TGI (IGROV1 ovarian) was greater than 100 µM, the TGI (UACC-62 melanoma) was greater than 100 µM and the TGI (MALME-3M melanoma) was greater than 100 µM. It also gave a TGI (KM12 colon) greater than 100 µM, a TGI (UO-31 renal) greater than 100 µM and a TGI (UACC-257 melanoma) greater than 100 µM. It also gave a TGI (SNB-19 CNS) greater than 100 µM, a TGI (SF-268 CNS) greater than 100 µM and a TGI (OVCAR-8 ovarian) greater than 100 µM. The TGI (SF-539 CNS) was greater than 100 µM, the TGI (OVCAR-5 ovarian) was greater than 100 µM and the TGI (U251 CNS) was greater than 100 µM. It also gave a TGI (CAKI-1 renal) greater than 100 µM, a TGI (M19-MEL melanoma) greater than 100 µM and a TGI (MOLT-4 leukemia) greater than 100 µM.

With `NC(CCCCCP(=O)(c1ccccc1)C1C=CC=CC1)C(=O)O` (centres undefined) the TGI (SK-MEL-28 melanoma) was greater than 100 µM, the TGI (RXF 393 renal) was greater than 100 µM and the TGI (HL-60(TB) leukemia) was greater than 100 µM. It also gave a TGI (NCI-H522 lung) greater than 100 µM, a TGI (IGROV1 ovarian) greater than 100 µM and a TGI (UACC-62 melanoma) greater than 100 µM. The TGI (KM12 colon) was greater than 100 µM, the TGI (UO-31 renal) was greater than 100 µM and the TGI (UACC-257 melanoma) was greater than 100 µM. For the same compound, the TGI (SNB-19 CNS) was greater than 100 µM, the TGI (SF-268 CNS) was greater than 100 µM and the TGI (OVCAR-8 ovarian) was greater than 100 µM. For the same compound, the TGI (SF-539 CNS) was greater than 100 µM, the TGI (OVCAR-5 ovarian) was greater than 100 µM and the TGI (U251 CNS) was greater than 100 µM. The TGI (CAKI-1 renal) was greater than 100 µM and the TGI (MOLT-4 leukemia) was greater than 100 µM.

Work on `O=c1cc[nH]c(=O)[nH]1` yielded a TGI (SK-MEL-28 melanoma) greater than 900 µM, a TGI (RXF 393 renal) greater than 889 µM and a TGI (HL-60(TB) leukemia) greater than 1000 µM. For the same compound, the TGI (NCI-H522 lung) was 923 µM, the TGI (IGROV1 ovarian) was greater than 1000 µM and the TGI (UACC-62 melanoma) was greater than 1000 µM. The GI50 (MALME-3M melanoma) was greater than 851 µM, the TGI (MALME-3M melanoma) was greater than 1000 µM and the TGI (KM12 colon) was 846 µM. The TGI (UO-31 renal) was greater than 1000 µM, the TGI (UACC-257 melanoma) was greater than 1000 µM and the TGI (SNB-19 CNS) was 828 µM. It also gave a TGI (SF-268 CNS) greater than 1000 µM, a TGI (OVCAR-8 ovarian) greater than 1000 µM and a TGI (SF-539 CNS) of 926 µM. It also gave a TGI (OVCAR-5 ovarian) greater than 956 µM, a TGI (U251 CNS) greater than 1000 µM and a TGI (CAKI-1 renal) greater than 920 µM. The TGI (M19-MEL melanoma) was greater than 944 µM and the TGI (MOLT-4 leukemia) was greater than 919 µM.

`C=CCc1c(O)c2c(c3oc(=O)cc(C)c13)CC(C)O2` (centres undefined) showed a TGI (RXF 393 renal) greater than 100 µM, a TGI (HL-60(TB) leukemia) greater than 100 µM and a TGI (NCI-H522 lung) greater than 100 µM. For the same compound, the TGI (IGROV1 ovarian) was greater than 100 µM, the TGI (UACC-62 melanoma) was greater than 100 µM and the TGI (MALME-3M melanoma) was greater than 100 µM. For the same compound, the TGI (UO-31 renal) was greater than 100 µM, the TGI (UACC-257 melanoma) was greater than 100 µM and the TGI (SNB-19 CNS) was greater than 100 µM. It also gave a TGI (SF-268 CNS) greater than 100 µM, a TGI (OVCAR-8 ovarian) greater than 100 µM and a TGI (SF-539 CNS) greater than 100 µM. For the same compound, the TGI (OVCAR-5 ovarian) was greater than 100 µM, the TGI (U251 CNS) was greater than 100 µM and the TGI (CAKI-1 renal) was greater than 100 µM. It also gave a TGI (M19-MEL melanoma) greater than 100 µM and a TGI (MOLT-4 leukemia) greater than 100 µM.

With `CC(C)Cc1ccc(C(C)C(=O)N2CCN(/C=C/c3ccccc3)CC2)cc1` (centres undefined) the TGI (SK-MEL-28 melanoma) was 32.1 µM, the TGI (RXF 393 renal) was 30.8 µM and the TGI (HL-60(TB) leukemia) was 18.7 µM. It also gave a TGI (NCI-H522 lung) of 25 µM, a TGI (IGROV1 ovarian) of 28.7 µM and a TGI (UACC-62 melanoma) of 26.3 µM. The TGI (MALME-3M melanoma) was 30.4 µM, the TGI (KM12 colon) was 31.7 µM and the TGI (UO-31 renal) was 24 µM. It also gave a TGI (UACC-257 melanoma) of 31.4 µM, a TGI (SNB-19 CNS) of 22 µM and a TGI (SF-268 CNS) of 32 µM. For the same compound, the TGI (OVCAR-8 ovarian) was 29.1 µM, the TGI (SF-539 CNS) was 28.9 µM and the TGI (OVCAR-5 ovarian) was 26.9 µM. For the same compound, the TGI (U251 CNS) was 25.5 µM, the TGI (M19-MEL melanoma) was 29.7 µM and the TGI (MOLT-4 leukemia) was 23.4 µM.

With `O=C1c2cccc3c2C(=O)c2c(cccc21)OCCOCCOCCOCCO3` the TGI (RXF 393 renal) was greater than 100 µM, the TGI (HL-60(TB) leukemia) was greater than 100 µM and the TGI (NCI-H522 lung) was greater than 100 µM. It also gave a TGI (IGROV1 ovarian) greater than 100 µM, a TGI (UACC-62 melanoma) greater than 100 µM and a TGI (MALME-3M melanoma) greater than 100 µM. For the same compound, the TGI (UO-31 renal) was 99.8 µM, the TGI (UACC-257 melanoma) was greater than 100 µM and the TGI (SNB-19 CNS) was greater than 100 µM. The TGI (SF-268 CNS) was greater than 100 µM, the TGI (OVCAR-8 ovarian) was greater than 100 µM and the TGI (SF-539 CNS) was greater than 100 µM. For the same compound, the TGI (OVCAR-5 ovarian) was greater than 100 µM, the TGI (U251 CNS) was greater than 100 µM and the TGI (CAKI-1 renal) was greater than 100 µM. It also gave a TGI (M19-MEL melanoma) greater than 100 µM and a TGI (MOLT-4 leukemia) greater than 100 µM.

For `CCOc1ncn(-c2ccc(NC(=S)Nc3ncccn3)cc2)n1`, the TGI (SK-MEL-28 melanoma) was 59.8 µM, the TGI (HL-60(TB) leukemia) was 65.2 µM and the TGI (NCI-H522 lung) was 38.6 µM. The TGI (IGROV1 ovarian) was greater than 100 µM, the TGI (UACC-62 melanoma) was 91 µM and the TGI (KM12 colon) was greater than 100 µM. For the same compound, the TGI (UO-31 renal) was 36 µM, the TGI (UACC-257 melanoma) was greater than 100 µM and the TGI (SNB-19 CNS) was greater than 100 µM. It also gave a TGI (SF-268 CNS) greater than 100 µM, a TGI (OVCAR-8 ovarian) of 56 µM and a TGI (SF-539 CNS) of 33.5 µM. For the same compound, the TGI (OVCAR-5 ovarian) was greater than 100 µM, the TGI (U251 CNS) was greater than 100 µM and the TGI (MOLT-4 leukemia) was 57.3 µM.

`O=c1sc2ccccc2n1CC1CS1` (centres undefined) was tested, and the TGI (SK-MEL-28 melanoma) was greater than 100 µM, the TGI (RXF 393 renal) was greater than 100 µM and the TGI (HL-60(TB) leukemia) was greater than 100 µM. It also gave a TGI (NCI-H522 lung) greater than 100 µM, a TGI (IGROV1 ovarian) greater than 100 µM and a TGI (UACC-62 melanoma) greater than 100 µM. The TGI (MALME-3M melanoma) was greater than 100 µM, the TGI (KM12 colon) was greater than 100 µM and the TGI (UO-31 renal) was greater than 100 µM. It also gave a TGI (SNB-19 CNS) greater than 100 µM, a TGI (SF-268 CNS) greater than 100 µM and a TGI (OVCAR-8 ovarian) greater than 100 µM. The TGI (SF-539 CNS) was greater than 100 µM, the TGI (OVCAR-5 ovarian) was greater than 100 µM and the TGI (CAKI-1 renal) was greater than 100 µM. The TGI (M19-MEL melanoma) was greater than 100 µM and the TGI (MOLT-4 leukemia) was greater than 100 µM.
